Measurements as given in article PMC3793977, “High-Throughput Screening (HTS) and Hit Validation to Identify Small Molecule Inhibitors with Activity against NS3/4A proteases from Multiple Hepatitis C Virus Genotypes” (PLoS ONE, 2013).
Entries after “also recorded” stand apart in the source; their conditions may differ. Like-named read-outs stand apart in the source and are kept apart here.

Key:
[1] = biological target: T1, full-length NS3/4A protease (genotype 1b) (Hepatitis C virus genotype 1b, UniProt Q9WMX2); test: biochemical; details: for IC50: purified full-length NS3/4A, genotype 1b wild-type; for inhibitory activity (SAR, in words): preliminary SAR of compound 12 analogues; for inhibition at 50 µM: read-out: percent inhibition at 50 µM compound concentration
T1 construct: wild-type HCV NS3 (HCV polyprotein residues 1027–1657); His-tag (N); made in house
Procedure: All assays were done in duplicate in black 384-well plates (Matrix Technologies). […] 200 nL of 10 mM compound (50 µM final concentrations) were then added and incubated for 5 minutes. Enzyme reactions were initiated with 10 µL of substrate Ac-DE-Dap(QXL520)-EE-Abu-ψ-[COO]AS-C(5-FAMsp)-NH2 (Anaspec) (1 µM final concentration), incubated for 6 minutes, and quenched by 10 µL of 10% SDS as a stop solution. Fluorescence intensity was monitored with a POLARstar OPTIMA microplate reader (BMG LABTECH). Each plate contained a total of 32 positive and 32 negative controls.
A series of compound concentrations (0 to 200 µM final concentration at 2-fold serial dilution) in 100% DMSO were prepared in a 384-well plate. 20 µL of enzyme solution was distributed to wells, and 0.5 µL of varying concentration of compounds were added and incubated for 5 minutes. The enzyme reaction was initiated by adding 5 µL of the substrate, and its activity was continuously monitored for 6 minutes. The IC50 values were calculated by fitting with the Hill equation (1), with OriginPro 8.5 (OriginLab, Inc.) where y is percent inhibition, x is inhibitor concentration, n is the slope of the concentration–response curve (Hill slope), and Vmax is maximal inhibition from two to four independent assays. [drawing 1] (1)

full-length NS3/4A = biological target: T2, full-length NS3/4A (Hepatitis C virus genotype 1b, UniProt Q9WMX2); test: SPR binding assay (dissociation equilibrium constant KD); details: 0–200 µM compound, single referenced with blank (ethanolamine)
T2 construct: wild-type HCV NS3 (HCV polyprotein residues 1027–1657); His-tag (N); made in house
Procedure: The full-length NS3/4A enzyme was prepared in a storage buffer (50 mM HEPES, pH 7.6, 500 mM NaCl, 1 mM DTT, 0.2% Triton X-100, and 20% glycerol) and immobilized on a CM5 sensor chip using standard amine-coupling at 25°C with running buffer HBS-P (10 mM HEPES, 150 mM NaCl, 0.05% surfactant P-20, pH 7.4) using a Biacore T100 instrument. Flow channels 1 and 3 were activated by 1-ethyl-3-(3-dimethylaminopropyl) carbodiimide hydrocholoride (EDC)/N-hydroxy succinimide (NHS) mixture, and the activated surface was blocked by ethanolamine (pH 8.5) as controls. The NS3/4A enzyme was diluted in 10 mM sodium acetate (pH 5.0), and immobilized to flow channel 4 after sensor surface activation with EDC/NHS with a 7 min injection followed by ethanolamine blocking on unoccupied surface area. NS3/4A immobilization level was ∼8,500 response units (RU). An unrelated reference protein (92 kDa) was also immobilized to flow channel 2 as another control to be compared with NS3/4A (74.6 kDa). Fifteen initial hit compounds were prepared as 10 mM DMSO stock solutions. Compound solutions with a series of increasing concentrations (0–200 µM at 1.5-fold dilution) were applied to all four channels at a 10 µL/min flow rate at 25°C. Sensorgrams were analyzed using Biaevaluation software 2.0.3, and response unit difference (ΔRU) values at each concentration were measured during the equilibration phase. Data were either single referenced with a blank (enthanolamine) or double referenced with both blank and reference protein RU values. SigmaPlot 11.0 was used to fit the data to a single rectangular hyperbolic curve to determine KD values. The hyperbola function, y = ymax·x/(KD+x), was used to plot response units and corresponding concentration, where y is the response, ymax is the maximum response, and x is the compound concentration.

Trypsin = biological target: T3, Trypsin (Homo sapiens, UniProt P07477); test: Inhibitor selectivity assay, trypsin (fluorometric); type: biochemical
T3 construct: purchased Sigma
Procedure: (§1) To test for selectivity, two human serine proteases, Trypsin and Chymotrypsin (Sigma), were tested with the top two hit compounds from HTS using a fluorometric assay. The fluorogenic substrates used in this study were N-benzoyl-L-Arg-7-amido-4-methylcoumarin (Sigma) and N-succinyl-Ala-Ala-Phe-7-amido-4- methylcoumarin (Sigma) for trypsin and chymotrypsin, respectively. All assays were performed in 384-well black plates (Corning) in a total volume of 24 µL of PBS (pH 7.4) buffer containing 0.01% Triton, 0.1 mg/mL BSA, and 2 mM GSH in triplicate. A series of compound concentrations (0 to 200 µM final concentration at 2-fold serial dilution) in 100% DMSO was prepared in a 384-well plate. 20 µL of trypsin (0.01 mg/mL) and chymotrypsin (0.0001 mg/mL) solutions were distributed into wells, and 0.5 µL of varying concentration of compounds were added and incubated for 10 minutes. The enzyme reaction was initiated by adding 5 µL of the substrate (50 µM final concentration), and fluorescence intensity was continuously monitored at excitation/emission wavelengths of 350 nm/460 nm for 10 minutes.

Chymotrypsin = biological target: T4, Chymotrypsin (Homo sapiens, UniProt P17538); test: Inhibitor selectivity assay, chymotrypsin (fluorometric); type: biochemical
T4 construct: purchased Sigma
Procedure: as §1

[2] = Microsomal stability assay; type: in vitro ADME, mouse; details: Balb/c, mouse, microsomes, pH 7.4
Procedure: A typical incubation mixture (100 µL total volume) for the metabolic stability studies contained 1 µM (final concentration) test compounds, 0.5 mg/mL microsomal protein (pooled Balb/c mouse liver microsomes prepared as described previously), 100 mM Tris-HCl buffer (pH7.4), and NADPH-generating system (5 mM isocitric acid, 0.2 unit/mL isocitric acid dehydrogenase, 5 mM magnesium chloride, 1 mM NADP^+). After pre-incubation at 37°C for 5 minutes, the reactions were started by addition of NADP^+ and further incubated for another 0, 5, 10, and 20 minutes. For control experiments, NADPH and/or liver microsomes were omitted from these incubations. The reactions were terminated by adding 100 µL ice-cold acetonitrile containing phenytoin (1 µM) as an internal standard and kept on ice for 30 minutes, followed by centrifugation at 16,100 g for 15 minutes to obtain the supernatant. Aliquots (5 µL) were then analyzed for substrate disappearance using liquid chromatography-tandem mass spectrometry (Agilent 1200 HPLC interfaced with Applied Biosystems Qtrap 3200) equipped with an electrospray ion source. Chromatographic separation was carried out with a Waters XTerra MS C18 column (2.1×50 mm, 3.5 µm; Agilent Technologies, Santa Clara, CA). The mobile phases consisted of solvent A (0.1% (v/v) aqueous formic acid) and solvent B (acetonitrile). A 250 µL/min flow rate gradient was developed for each test compound over 10 minutes (Table S2 in File S1). Mass detection of test substrates and internal standard were followed in a positive ion mode by examining multiple reaction monitoring (MRM) pairs. The spraying needle voltage was set at 5000 V. Curtain gas was set at 20; gas 1 and gas 2 were set at 45 and 50, respectively; collision assisted dissociation gas was at medium; and the source heater probe temperature was at 500°C. The test compounds were quantified by comparing the ratio of ion currents obtained for the substrates and an internal standards calibration curve. Data acquisition and processing were accomplished using Analyst software (version 1.4.1; Applied Biosystems). Apparent half-lives (t1/2) for the disappearance of parent drugs were calculated from the pseudo-first-order rate constants (ke) obtained by linear regression of plots of log [drug remaining] versus time (GraphPad Prism 5 software, La Jolla, CA) using the equation: t1/2 = 0.693/ke.

[3] = read-out: IC50 Full-length NS3/4A

T2 sequence (Q9WMX2 1658-1711): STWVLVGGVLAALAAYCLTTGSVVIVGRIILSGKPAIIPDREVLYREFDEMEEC
T2 sequence (Q9WMX2 1027-1657): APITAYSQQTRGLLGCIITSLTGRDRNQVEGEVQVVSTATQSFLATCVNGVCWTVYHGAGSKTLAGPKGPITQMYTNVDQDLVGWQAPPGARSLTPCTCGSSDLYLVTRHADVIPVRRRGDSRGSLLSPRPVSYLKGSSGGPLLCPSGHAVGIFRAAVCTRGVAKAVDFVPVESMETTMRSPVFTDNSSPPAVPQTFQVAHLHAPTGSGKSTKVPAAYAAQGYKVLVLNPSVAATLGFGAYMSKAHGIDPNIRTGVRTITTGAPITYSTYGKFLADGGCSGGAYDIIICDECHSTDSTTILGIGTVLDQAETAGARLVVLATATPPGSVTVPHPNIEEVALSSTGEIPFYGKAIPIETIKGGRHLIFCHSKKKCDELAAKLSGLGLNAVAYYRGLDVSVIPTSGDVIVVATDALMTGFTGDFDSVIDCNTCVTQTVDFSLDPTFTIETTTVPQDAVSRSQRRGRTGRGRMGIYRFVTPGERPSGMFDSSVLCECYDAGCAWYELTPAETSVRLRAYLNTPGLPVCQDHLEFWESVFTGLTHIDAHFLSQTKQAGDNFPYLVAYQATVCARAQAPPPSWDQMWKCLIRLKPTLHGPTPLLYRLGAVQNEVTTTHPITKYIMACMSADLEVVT
T1 sequence (Q9WMX2 1658-1711): as the sequence (Q9WMX2 1658-1711) above
T1 sequence (Q9WMX2 1027-1657): as the sequence (Q9WMX2 1027-1657) above
T4 sequence (P17538 19-263): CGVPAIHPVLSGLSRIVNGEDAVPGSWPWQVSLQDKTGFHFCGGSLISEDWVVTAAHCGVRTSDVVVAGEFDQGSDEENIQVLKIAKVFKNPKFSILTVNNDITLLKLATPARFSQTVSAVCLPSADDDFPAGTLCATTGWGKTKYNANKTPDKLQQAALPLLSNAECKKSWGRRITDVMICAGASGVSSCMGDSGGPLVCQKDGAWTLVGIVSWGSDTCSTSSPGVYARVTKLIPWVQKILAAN

| SMILES | inhibitory activity (SAR, in words) [1] | IC50 [1, 3] [µM] | inhibition at 50 µM [1] [%] | further results |
| --- | --- | --- | --- | --- |
| O=C1c2c(O)ccc(O)c2C(=O)c2c(NCCNCCO)ccc(NCCNCCO)c21 [Compound 4, mitoxantrone, reference compound] |  |  |  | IC50 ([1]; IC50 Full-length NS3/4A): 3.1 ± 0.1 µM; SPR binding pattern to NS3/4A (full-length NS3/4A): non-specific binding patterns; inhibition at 100 µM (Trypsin; 100 µM compound, read-out: Trypsin % Inh at 100 µM): 22%; IC50 (Trypsin; human trypsin): > 100 µM; inhibition at 100 µM (Chymotrypsin; 100 µM compound, read-out: Chymotrypsin % Inh at 100 µM): 0%; IC50 (Chymotrypsin; human chymotrypsin): > 100 µM; microsomal stability ([2]; 1 µM): 25 min; half-life at 1 µM [2]: 25.4 min |
| O=C(Cc1csc(NS(=O)(=O)c2ccc(Cl)cc2)n1)Nc1cccc(F)c1 [Compound 23] | Moderate activity | 24.2 |  |  |
| O=C(Cc1csc(NS(=O)(=O)c2ccccc2)n1)Nc1cccc(F)c1 [Compound 22] |  | > 100 | 41.7 |  |
| COc1ccc(S(=O)(=O)Nc2nc(CC(=O)Nc3ccc(Br)c(C)c3)cs2)cc1 [Compound 18] | Moderate activity | 14.4 |  |  |
| Cc1ccc(S(=O)(=O)Nc2ccccc2C(=O)Nc2nc3c(Br)cccc3s2)cc1 [Compound 27] | activity is regained | 15.6 |  |  |
| Cc1cc(Br)ccc1NC(=O)Cc1csc(NS(=O)(=O)c2ccccc2)n1 [Compound 17] |  | 23.5 |  |  |
| Cc1cccc(NC(=O)Cc2csc(NS(=O)(=O)c3ccc(Cl)cc3)n2)c1 [Compound 24] | Moderate activity | 21.8 |  |  |
| CCc1ccc(NC(=O)Cc2csc(NS(=O)(=O)c3ccc(C)cc3)n2)cc1 [Compound 21] | complete activity loss | > 100 | 7.2 |  |
| Cc1ccc(S(=O)(=O)Nc2ccccc2C(=O)Nc2nc3c(Br)cccc3s2)cc1 [Compound 15] |  |  |  | SPR binding pattern to NS3/4A (full-length NS3/4A): lack of binding; also recorded: did not bind |
| O=C(Cc1csc(NS(=O)(=O)c2ccccc2)n1)Nc1ccccc1 [Compound 16] |  | 24.9 |  |  |
| Cc1ccc(S(=O)(=O)Nc2ccccc2C(=O)Nc2nc3c(C)ccc(C)c3s2)cc1 [Compound 26] |  | > 100 | 0 |  |
| Cc1ccc(S(=O)(=O)Nc2nc(CC(=O)Nc3ccc(Br)cc3C)cs2)cc1 [Compound 20] | complete activity loss | > 100 | 29.1 |  |
| Cc1ccc(NC(=O)Cc2csc(NS(=O)(=O)c3ccc(Cl)cc3)n2)cc1Cl [Compound 25] |  | > 100 | 29.2 |  |
| COc1ccc(S(=O)(=O)Nc2nc(CC(=O)Nc3ccc(Br)cc3C)cs2)cc1 [Compound 19] | Moderate activity | 6.2 |  |  |
